The text below walks through data of article PMC10610311, “Eugenol: In Vitro and In Ovo Assessment to Explore Cytotoxic Effects on Osteosarcoma and Oropharyngeal Cancer Cells” (Plants, 2023).

For data set [1], the system named is chorioallantoic membrane of hen's eggs. In words: Hen's Egg Test - Chorioallantoic Membrane (HET-CAM). The data set is classed as in vivo, Gallus gallus domesticus. The arrangement: key to IS (irritation score): IS = 5×(301−H)/300 + 7×(301−L)/300 + 9×(301−C)/300; tH, time at which hemorrhage was established / tL, time at which vascular lysis was established / tC, time at which intravascular coagulation was established: unit not given here. As to conditions: Eug 1 mM / SDS 1%, monitored 5 min; for IS (irritation score): 600 µL on CAM. The protocol:
The irritant and toxic potential of Eug (1 mM) at the vascular level was assessed by performing the HET-CAM assay, as previously described. In brief, several steps were followed: […] (ii) on day 4 after incubation, a perforation was made in each egg to extract 6 to 7 mL of albumen; (iii) on the next day of incubation, a window was cut in the upper part of the eggs to facilitate the visualization of the blood vessels, and was covered using adhesive tape; (iv) on day 10 of incubation, 600 µL of each sample (negative control—H2O, positive control—SDS 1%, and Eug 1 mM) were added to the chorioallantoic membrane; (v) the compounds’ ability to produce hemorrhage (H), vascular lysis (L), and coagulation was monitored for 5 min, taking photos (using the Discovery 8 Stereomicroscope from Zeiss, Göttingen, Germany and the Zeiss Axio CAM 105 color camera) prior to the addition of the samples (T0) and at the end of the 5 min period (T5); and (vi) the irritation score (IS) was finally determined for each sample, according to the following formula: IS=5×301−H/300+7×301−L/300+9×301−C/300, where IS = irritation score, H—the time at which the hemorrhage was observed, L—the time at which vascular lysis occurred and C—the time at which intravascular coagulation was established.

The next data set relates to keratinocytes (HaCaT). As to conditions: cited from earlier work.
For data set [2], the system named is SAOS-2 cells. Further details: method as in PMID 26929741. As to conditions: SAOS-2, 100 μM; cited from earlier work.
Data set [3] has as its system SAOS-2 (human osteosarcoma cells). Nature of the data set: MTT cell viability assay, SAOS-2. The class given is cell-based. As to conditions: 72 h, read-out: cell viability (normalized to control). The method, then: (§1) The present study was performed on two human cancer cell lines—SAOS-2 (osteosarcoma cells) and Detroit-562 (oropharynx squamous carcinoma cells), respectively, which were received from ATCC in the form of frozen vials. SAOS-2 cells were cultured in DMEM, while Detroit-562 cells were cultured using EMEM. Both media contained 10% FCS and 1% penicillin (100 U/mL)–streptomycin (100 μg/mL) mixture. Over the course of the experiments, the cells were incubated at 37 °C and 5% CO2.
(§2) A colorimetric approach—the MTT [[…])-2,5-diphenyltetrazolium bromide] assay, was used to determine cell viability. This was accomplished by cultivating the cells in 96-well plates at a density of 1x10^4 cells per well. Upon achieving a confluence of approximately 90%, the cells were stimulated for 72 h with five concentrations of Eug (0.1; 0.25; 0.5; 0.75 and 1 mM). The Eug solutions were prepared by diluting stock solution in culture medium. After this time interval, 10 μL of MTT reagent was added to each well, and the cells were incubated for three hours at 37 °C. To solubilize the MTT formazan crystals, 100 μL of solubilizer were added to each well, and after 30 min, the absorbance was measured at 570 nm using Cytation 5 (BioTek Instruments Inc., Winooski, VT, USA).
(In general: Formazan colour is commonly taken as a measure of viable cells.)

The subject of data set [4] is Detroit-562 (oropharynx squamous carcinoma cells). In words: MTT cell viability assay, Detroit-562. As to conditions: Homo sapiens, 72 h, read-out: cell viability (normalized to control). The class given is cell-based. The protocol: as §1, §2
Data set [5] deals with SAOS-2 cells. Nature of the data set: Cellular morphology evaluation (bright field), SAOS-2. As to conditions: SAOS-2, concentrations higher than 0.1 mM, 72 h. The data set is classed as cell-based, human. The protocol:
(§3) As a means of determining the impact of Eug on the morphology of cells, the microscopic evaluation of SAOS-2 and Detroit-562 cells was carried out after exposure for 72 h. The changes were observed under bright field illumination with the help of the Olympus IX73 inverted microscope (Olympus, Tokyo, Japan), and the processing of the images for the purpose of analysis was carried out by means of CellSens Dimensions v.17 Software (Olympus, Tokyo, Japan).

The test system of data set [6] is Detroit-562 cells. In words: Cellular morphology evaluation (bright field), Detroit-562. As to conditions: Detroit-562, Eug 0.1 mM, 72 h, vs control. The data set is classed as cell-based, human. The method, then: as §3
Data set [7] concerns SAOS-2 cells. In words: DAPI nuclear morphology / apoptotic index, SAOS-2. As to conditions: 72 h. The class given is cell-based, human. The method, then: (§4) Using immunofluorescence, it was possible to provide further details regarding Eug’s effects on osteosarcoma and oropharynx squamous carcinoma nuclei. The technique was performed for cells stimulated with Eug 0.5 and 1 mM for 72 h. The applied protocol assumed the following stages: (i) culturing the cells in 12-well plates and stimulating them after reaching the desired confluence with Eug 0.5 and 1 mM for 72 h; (ii) washing with PBS and fixing the cells with 4% paraformaldehyde; (iii) permeabilization with Triton X 0.2%; (iv) blocking the permeabilization with a FCS solution in Triton X 0.01%; and (v) adding DAPI for 15 min. The pictures were then taken with Cytation 1 and processed using Gen5™ Micro-plate Data Collection and Analysis Software v. 3.12 (BioTek® Instruments Inc., Winooski, VT, USA). For a quantitative analysis of the Eug impact at the cellular level, the cell apoptosis index (AI) was calculated using the previously described formula [76]: AI=Number of apoptotic cells/Total number of cells×100
(§5) In accordance with the published protocols, the nuclear morphology was evaluated using ImageJ software v.6 [77].

For data set [8], the system named is Detroit-562 cells. Nature of the data set: DAPI nuclear morphology / apoptotic index, Detroit-562. The data set is classed as cell-based, human. As to conditions: 72 h. The method, then:
as §4, §5

For data set [9], the system named is Bax, Bad, Bcl-2 mRNA in SAOS-2 cells. Nature of the data set: RT-PCR expression of apoptosis-related genes, SAOS-2. The class given is cell-based, human. As to conditions: SAOS-2, Eug 0.5 mM, 72 h, normalized to 18S. The protocol:
(§6) To investigate the potential cell-death mechanism induced by Eug 0.5 mM in SAOS-2 and Detroit-562 cells, the expression of pro-apoptotic (Bax, Bad) and anti-apoptotic (Bcl-2) markers was evaluated using the real-time reverse transcription–polymerase chain reaction (RT-PCR) technique after 72 h of treatment. RNA extraction was performed using the Quick-RNA Miniprep Kit (Zymo Research, Irvine, CA, USA), and the amount of extracted RNA was measured with the DS-11 spectrophotometer (DeNovix, Wilmington, DE, USA). The cDNA was produced using the Maxima® First Strand cDNA Synthesis Kit, and the RT-qPCR quantification was performed using a Quant Studio 5 real-time PCR system (Thermo Fisher Scientific, Inc., Waltham, MA, USA) and Power SYBR-Green PCR Master Mix (Thermo Fisher Scientific, Inc., Waltham, MA, USA).

Data set [10] relates to Bax, Bad, Bcl-2 mRNA in Detroit-562 cells. In words: RT-PCR expression of apoptosis-related genes, Detroit-562. The class given is cell-based, human. As to conditions: Detroit-562, Eug 0.5 mM, 72 h, normalized to 18S. The method, then: as §6
Data set [11] has as its system caspases 3/7, 8, and 9 in SAOS-2 cells. Nature of the data set: Caspase-Glo caspase-3/7, -8, -9 activity, SAOS-2. The data set is classed as cell-based, human. As to conditions: SAOS-2, Eug 0.5 mM, 72 h. The method, then: (§7) The activity of caspases 3/7, 8, and 9 was determined after the SAOS-2 and Detroit-562 cells’ 72 h treatment with Eug 0.5 mM, using the Caspase-Glo Kit provided by Promega, Madison, WI, USA. The plates were first equilibrated at room temperature for 30 min, then, the Caspase-Glo reagent (100 μL/well) was added. The plates were shaken for 30 s on a plate shaker and maintained at room temperature for another 2 h. Finally, the luminescence was measured on Cytation 5 (BioTek Instruments Inc., Winooski, VT, USA).

For data set [12], the system named is caspases 3/7, 8, and 9 in Detroit-562 cells. Nature of the data set: Caspase-Glo caspase-3/7, -8, -9 activity, Detroit-562. The class given is cell-based, human. As to conditions: Detroit-562, Eug 0.5 mM, 72 h. The method, then:
as §7

Data set [13] deals with SAOS-2 cells. In words: RealTime-Glo Annexin V Apoptosis and Necrosis Assay, SAOS-2. The data set is classed as cell-based, human. As to conditions: SAOS-2, Eug 0.5 mM, 0-72 h. The method, then: (§8) To confirm the apoptotic effect of Eug 0.5 mM in Saos-2 and Detroit-562 cells, the RealTime-Glo™ Annexin V Apoptosis and Necrosis Assay was performed according to the manufacturer’s protocol. In brief, the cells were cultured in solid white bottom 96-well plates (Costar® 3917) and treated with Eug. The prepared 2X Detection Reagent that contained Annexin V NanoBiT™ Substrate, Annexin V-SmBiT, Annexin V-LgBiT, CaCl2, and Necrosis Detection Reagent was added in each well and the plates were shaken for 30 s at 500 rpm. The luminescence and fluorescence (excitation 485 ± 20 nm, and emission 525 ± 30 nm) were recorded at different time points (0, 6, 12, 24, 48, and 72 h post-treatment) using Cytation 5. Background signals (from no-cell wells) that were subtracted from the wells that contained cells.

In data set [14] the test system is Detroit-562 cells. In words: RealTime-Glo Annexin V Apoptosis and Necrosis Assay, Detroit-562. As to conditions: Detroit-562, Eug 0.5 mM, 0-72 h. The data set is classed as cell-based, human. The protocol:
as §8

Data set [15] relates to colorectal carcinoma cells (HCT-116). The arrangement: method as in doi:10.31925/farmacia.2023.2.8. As to conditions: HCT-116, Eug between 0.1 and 1 mM; cited from earlier work.
Data set [16] has as its system gingival fibroblasts (HGF). Further details: method as in PMID 36675971, doi:10.31925/farmacia.2023.2.8. As to conditions: same concentration and time interval as current study; cited from earlier work.
Data set [17] relates to tongue squamous carcinoma cells (SCC4). The arrangement: method as in PMID 36675971. As to conditions: SCC4, Eug between 0.1 and 1 mM; cited from earlier work.
The mark [18] stands for this setting: SAOS-2, Eug 0.5 and 1 mM, vs control.
The mark [19] stands for this setting: Detroit-562, Eug 0.5 and 1 mM, vs control.

Structures are written as SMILES. Where only a bound is given, the exact number is not on record here.

With `CCCCCCCCCCCCOS(=O)(=O)[O-].[Na+]` [SDS, sodium dodecyl sulfate, reference compound], in [1], the “IS (irritation score)” value turned out to be 19.87; the “tC, time at which intravascular coagulation was established” value turned out to be 15; the “tH, time at which hemorrhage was established” value was 21; the “tL, time at which vascular lysis was established” value turned out to be 17.

In the case of `CN(Cc1cnc2nc(N)nc(N)c2n1)c1ccc(C(=O)N[C@@H](CCC(=O)O)C(=O)O)cc1` [methotrexate, reference compound], the “cell viability (in words)” value in the data set with keratinocytes (HaCaT) (non-tumor cells HaCaT, methotrexate more pronounced) is “reduced cell viability in a dose-dependent manner”. For the same compound, the cell viability result in the data set with SAOS-2 cells [2] is given as “below 20%”.

Consider `C=CCc1ccc(O)c(OC)c1` [Eug, 4-alil-2-metoxifenol], for which the viability at 100 µM came out at 92% in [3] (SAOS-2, Eug 0.1 mM) and 89% in [4] (Detroit-562, Eug 0.1 mM). Besides, the viability at 1000 µM came to 41% in data set [3] (SAOS-2, Eug 1 mM) and 37% in [4] (Detroit-562, Eug 1 mM). In addition, the “impact on cellular shape and confluence” value in the data set with SAOS-2 cells [5] is “significant impact”. Besides, the “changes in aspect or confluence of cells” value in the data set on Detroit-562 cells [6] was “no significant changes”. Moreover, the “apoptotic index (AI)” value in the data set on SAOS-2 cells [7] (SAOS-2, Eug 0.5 mM, DAPI) was 25%; with Detroit-562 cells [8] (Detroit-562, Eug 0.5 mM, DAPI), 30%. For the same compound, the nucleus area entry in the data set with SAOS-2 cells [7] (setting [18]) and in the data set on Detroit-562 cells [8] (setting [19]) was “decreased significantly” in each case. For the same compound, the nucleus circumference result in the data set on SAOS-2 cells [7] (setting [18]) and in the data set with Detroit-562 cells [8] (setting [19]) was “decreased significantly” each time. Besides, the “expression of anti-apoptotic marker Bcl-2 (mRNA)” value in [9] and in [10] was “decreasing” in each case. For the same compound, the “expression of pro-apoptotic marker Bad (mRNA)” value in [9] and in [10] was “significantly increasing” each time. For the same compound, the “expression of pro-apoptotic marker Bax (mRNA)” value in data set [9] and in data set [10] was “significantly increasing” throughout. For the same compound, the “activation of caspase 3/7” value in [11] and in [12] was “significant increase” throughout. The “activation of caspase 8” value in data set [11] and in data set [12] was “significant increase” in each case. The “activation of caspase 9” value in [11] and in [12] was “significant increase” in each case. For the same compound, the “luminescence signal (phosphatidylserine externalization), preceding the fluorescence increase” value with SAOS-2 cells [13] and with Detroit-562 cells [14] was “time-dependent increase” throughout. In addition, in data set [1], the “IS (irritation score)” value is on record as 1.69. Moreover, the “tC, time at which intravascular coagulation was established” value in data set [1] was 263. The “tH, time at which hemorrhage was established” value in [1] turned out to be 300. In addition, in data set [1], the “tL, time at which vascular lysis was established” value is recorded as 278. For the same compound, the “decrease in cell viability” value is listed as “up to 34%” in [15]; ≤ 70% in [16]; ≤ 70% in the data set on keratinocytes (HaCaT) (HaCaT, same concentration and time interval as current study). Besides, the “cell viability (in words)” value in data set [17] was “dose-dependent decrease”.

Usually viability stands for a per cent measure of how many cells are alive, often set against a control.
